# Test results published in publication PMC11408460 (Cellular and Molecular Life Sciences: CMLS, 2024).
# Residues, ends and D or L forms follow the SMILES beside them.
# What was measured:
# HeLa GL cells [1] = test: Autophagy quantification by immunofluorescence (GFP-LC3B puncta area); type: cell-based; conditions: 4 h, peptides 1 mg/ml, Chloroquine 10 µM, Torin-1 1 µM, confocal microscopy, n = 32–110 cells
# Protocol: HeLa GL cells were grown on coverslips (VWR) and treated for 4 h with respective substance. Afterwards, cells were fixed with 4% (w/v) PFA (Santa Cruz) for 20 min and permeabilized as well as blocked with 0.5% (v/v) Triton-X-100 (Sigma-Aldrich) and 5% (v/v) fetal bovine serum (Gibco) PBS for 1 h, both at RT. Cells were then mounted on microscope slides (VWR) in 4′,6-diamidino-2-phenylindole (DAPI, VWR)-containing Mowiol mounting medium (Mowiol 4–88 10% (w/v, Carl Roth), glycerol 25% (w/v, Sigma-Aldrich), H2O 25% (v/v), 0.2 M Tris HCl pH 8.5 50% (v/v, AppliChem GmbH, VWR), DABCO 2.5% (w/v, Carl Roth)) to co-stain nuclei. After acquiring ≥ 30 randomly selected cells using a Zeiss LSM 710 confocal microscope, a custom ImageJ (Version 1.54j) macro was used to analysis the total area of the cytoplasmic eGFP-LC3B puncta as previously described.
# Scale bar, 10 µm. DAPI (blue), nuclei. e Quantitative analysis of the LC3B-GFP area per cell of the data in (d). Lines represent geometric mean with 95% confidence interval, n = 32–110. […] Student’s t-test with Welch correction. *p < 0.05; **p < 0.01; ***p < 0.001
# HeLa GL cells [2] = test: Autophagy quantification via flow cytometry (membrane-bound eGFP-LC3B), HeLa GL; type: cell-based; conditions: 4 h; for autophagosome levels, versions of HBA1(120–132): 1 mg/ml, co-treatment with 20 µM Chloroquine, n = 10–24
# Protocol: A detailed protocol for quantification of the number of autophagosomes has previously been published. In brief, HEK293T, HeLa, and THP-1 cell lines stably expressing eGFP-LC3B (labelled as -GL respectively) were used. After cells were treated for 4 h with respective substance/fraction, cells were harvested by removing the medium and adding 0.05% trypsin (PAN Biotech). Afterwards cells were washed once with PBS and permeabilized with 0.05% (w/v) Saponin (Sigma-Aldrich) in PBS. Non-membrane bound eGFP-LC3B was washed out using PBS. Cells were fixed in 4% (w/v) paraformaldehyde in PBS. Quantification of the membrane associated eGFP-LC3B was performed using flow cytometry FACS Canto II, BD Biosciences. The mean eGFP-LC3B fluorescence intensity of the water control was then subtracted from each sample.
# To discover endogenous regulators of autophagy, we analyzed a human peptide library derived from bone marrow (BM). In brief, marrow was removed from 1.5 kg human femur bones and homogenized in acetic acid. The homogenate was filtered to contain only peptides with a molecular mass below 30 kDa. The BM library was initially separated on a reversed-phase column. To analyze the autophagy-modulating properties of individual peptide fractions, we used a high-throughput flow cytometry-based autophagosome quantification system. A hallmark of autophagy is the transition from soluble LC3B-I to autophagosome-associated LC3B-II. In GFP-LC3B expressing HeLa cells (HeLa GL), soluble GFP-LC3B is washed out by mild permeabilization and the remaining membrane-bound GFP-LC3B is quantified by FACS as a proxy for autophagosome numbers. Changes in autophagosome content are visualized as deviations from the background (i.e. carrier) control. […] Further purification identified subfraction BM.25.40.28 as bioactive (Fig. 1c). To identify the active peptide(s) we subjected fractions BM.25.40.26 to BM.25.40.30 to analysis by mass spectrometry (Supplementary data 1). Peptides with a molecular mass from ~ 750 Da to 5360 Da and a length from 7 to 57 amino acids were found in the fractions (Supplementary Fig. 1a). […]
# [3] = 1 mg/ml peptide in 1 × PBS, 22 °C, absorbance 330 nm, triplicates, corrected against PBS
# Protocol: 100 µl peptide solution was transferred to transparent 96-well F-bottom microplates (Greiner) and immediately processed. Before the measurement, solutions were briefly mixed by double-orbital shaking for 60 s at 240 rpm. Measurements were done at 22 °C in triplicates using a TECAN Spark plate reader at a wavelength of 330 nm and a bandwidth of 3.5 nm. Values were corrected against 1 × PBS and averaged.
# [4] = HBA1(111–132) incubated in human plasma, 37 °C, mass spectrometry
# Protocol: (§1) The mixture was centrifuged at 13,000 rpm for 30 s, and 150 µl of the supernatant was mixed with 750 µl 10% acetic acid in ice. The samples were analyzed by an Axima Confidence MALDI-TOF MS (Shimadzu) in linear mode using exactly the same measurement conditions for all samples spotted on a 384-well plate. Wells were coated with 1 µl of 5 mg/ml CHCA previously dissolved in matrix diluent (Shimadzu), and the solvent was allowed to evaporate. Then, each sample (0.5 µl), previously mixed with matrix (0.5 µl), was applied onto the dry pre-coated well, and the solvent was allowed to evaporate. Laser shots were automatically done following a regular circular raster of a diameter of 2000 µm and spacing of 200 µm on each well; 100 profiles were acquired per sample, and 20 shots were accumulated per profile. An accelerating voltage of 20 kV was applied to the ion source. Three experiments were performed, and the measurements of each sample were done in triplicate (81 measurements in total). The measurement and MS data processing (peak area calculation) were controlled by MALDI-MS Application Shimadzu Biotech Launchpad 2.9.8.1 (Shimadzu). Half-lives were calculated by GraphPad Prism 9.3.1 (GraphPad Software, LLC).
# in vitro = conditions: human, plasma
# Protocol: as §1
# [5] = human; cited from earlier work
# Circular dichroism = type: physicochemical; conditions: 10 mM phosphate buffer pH 7.4, 25 °C; 130 µM HBA1(120–132), 54 µM HBA1(111–132), 2.1 µM full-length human HB
# Protocol: Circular dichroism spectroscopy was recorded on a JASCO J-1500 spectrophotometer at 25 °C using a 0.1 cm path length quartz cuvette from Hellma Analytical. Data points were collected at a resolution of 0.2 nm, an integration time of 2 s and a scanning speed of 5 nm min-1. Each spectrum was the result of three accumulated independent scans. Phosphate buffer solution (10 mM, pH = 7.4) was employed to solubilize the samples. […] Background subtraction was performed using the solvent. Secondary structure estimation (SSE) for the samples was conducted using the CD Multivariate SSE program included in the JASCO spectrometer.
compound,measurement,setting,value
CCC(=O)N1CCN(c2ccc(-n3c(=O)ccc4cnc5ccc(-c6cnc7ccccc7c6)cc5c43)cc2C(F)(F)F)CC1 [Torin-1],GFP-LC3B area per cell (puncta = autophagosomes),HeLa GL cells [1],expected increase of autophagosomes
full-length HBA1: full-length hemoglobin A (HB subunit alpha-1),effect on autophagosome levels,"HeLa GL cells [2]; concentration range 1 mg/ml–7.8 µg/ml, n = 3",did not impact autophagosome levels
CCN(CC)CCCC(C)Nc1ccnc2cc(Cl)ccc12 (stereo not drawn) [Chloroquine],GFP-LC3B area per cell (puncta = autophagosomes),HeLa GL cells [1],expected increase of autophagosomes
CC(C)C[C@H](NC(=O)[C@H](C)NC(=O)[C@H](C)NC(=O)[C@H](Cc1c[nH]cn1)NC(=O)[C@@H](NC(=O)[C@H](C)NC(=O)[C@@H]1CCCN1)C(C)C)C(=O)N[C@@H](CC(=O)O)C(=O)N[C@@H](CCCCN)C(=O)N[C@@H](Cc1ccccc1)C(=O)N[C@@H](CC(C)C)C(=O)N[C@@H](C)C(=O)N[C@@H](C)C(=O)O [HBA1(120–132)S125A + S132A] (H-PAVHAALDKFLAA-OH),"solubility (precipitation turbidity, optical density)",[3],remained similar to HBA1(120–132)
CC(C)C[C@H](NC(=O)[C@H](Cc1ccccc1)NC(=O)[C@H](CCCCN)NC(=O)[C@H](CC(=O)O)NC(=O)[C@H](CC(C)C)NC(=O)[C@H](CO)NC(=O)[C@H](C)NC(=O)[C@H](Cc1c[nH]cn1)NC(=O)[C@@H](NC(=O)[C@H](C)NC(=O)[C@@H]1CCCN1C(=O)[C@@H](NC(=O)[C@H](Cc1ccccc1)NC(=O)[C@H](CCC(=O)O)NC(=O)[C@H](C)NC(=O)[C@@H]1CCCN1C(=O)[C@H](CC(C)C)NC(=O)[C@@H](N)Cc1c[nH]cn1)[C@@H](C)O)C(C)C)C(=O)N[C@@H](C)C(=O)N[C@@H](CO)C(=O)O [HBA1(113–132)] (H-HLPAEFTPAVHASLDKFLAS-OH),time of appearance of degradation fragment above 5% of total HBA1 content,[4],≤ 15 min
same,time of peak abundance of degradation fragment post plasma treatment,[4],> 140 min
"K127A: HBA1(120–132) with lysine exchanged for alanine (PAVHASLDAFLAS; UniProt P69905 120-132, looked up, fragment K128A)","autophagosome levels, versions of HBA1(120–132)",HeLa GL cells [2],the function to inhibit autophagy was reduced
same,"solubility (precipitation turbidity, optical density)",[3],precipitates were detected
CC(C)C[C@H](NC(=O)[C@H](Cc1ccccc1)NC(=O)[C@H](CCCCN)NC(=O)[C@H](CC(=O)O)NC(=O)[C@H](CC(C)C)NC(=O)[C@H](CO)NC(=O)[C@H](C)NC(=O)[C@H](Cc1c[nH]cn1)NC(=O)[C@@H](NC(=O)[C@H](C)NC(=O)[C@@H]1CCCN1C(=O)[C@@H](NC(=O)[C@H](Cc1ccccc1)NC(=O)[C@H](CCC(=O)O)NC(=O)[C@H](C)NC(=O)[C@@H]1CCCN1C(=O)[C@H](CC(C)C)NC(=O)[C@H](Cc1c[nH]cn1)NC(=O)[C@H](C)NC(=O)[C@H](C)N)[C@@H](C)O)C(C)C)C(=O)N[C@@H](C)C(=O)N[C@@H](CO)C(=O)O [HBA1(111–132)] (H-AAHLPAEFTPAVHASLDKFLAS-OH),half-life at 8.7 µM,in vitro,52 min
"D128A: HBA1(120–132) with aspartic acid exchanged for alanine (PAVHASLAKFLAS; UniProt P69905 120-132, looked up, fragment D127A)","autophagosome levels, versions of HBA1(120–132)",HeLa GL cells [2],does not alter the function
same,"solubility (precipitation turbidity, optical density)",[3],does not alter the function nor the solubility
CC(C)C[C@H](NC(=O)[C@H](CO)NC(=O)[C@H](C)NC(=O)[C@H](Cc1c[nH]cn1)NC(=O)[C@@H](NC(=O)[C@H](C)NC(=O)[C@@H]1CCCN1)C(C)C)C(=O)N[C@@H](C)C(=O)N[C@@H](C)C(=O)N[C@@H](Cc1ccccc1)C(=O)N[C@@H](CC(C)C)C(=O)N[C@@H](C)C(=O)N[C@@H](CO)C(=O)O [HBA1(120–132)D127A + K128A] (H-PAVHASLAAFLAS-OH),"solubility (precipitation turbidity, optical density)",[3],almost insoluble in water
TNF-α,half-life,[5],around 18 min
full-length HB: recombinant full-length hemoglobin,secondary structure in solution (circular dichroism),Circular dichroism,mainly composed of alpha-helical structures
CC(C)C[C@H](NC(=O)[C@H](Cc1ccccc1)NC(=O)[C@H](CCCCN)NC(=O)[C@H](CC(=O)O)NC(=O)[C@H](CC(C)C)NC(=O)[C@H](CO)NC(=O)[C@H](C)NC(=O)[C@H](Cc1c[nH]cn1)NC(=O)[C@@H](NC(=O)[C@H](C)NC(=O)[C@@H]1CCCN1C(=O)[C@@H](NC(=O)[C@H](Cc1ccccc1)NC(=O)[C@H](CCC(=O)O)NC(=O)[C@H](C)NC(=O)[C@@H]1CCCN1)[C@@H](C)O)C(C)C)C(=O)N[C@@H](C)C(=O)N[C@@H](CO)C(=O)O [HBA1(115–132)] (H-PAEFTPAVHASLDKFLAS-OH),time of appearance of degradation fragment above 5% of total HBA1 content,[4],180 min
